The text below walks through data of US5250424A, “Processes for preparing novel squalene synthetase inhibitors” (Merck & Co., Inc., priority 1992, dated 1993).

The assay relates to squalene synthetase. Kind of assay: Squalene synthetase assay (rat liver microsomes, [4-14C]farnesyl pyrophosphate). The settings on record: C18 HPLC fractions of Curvularia lunata (MF5573 or MF5572) fermentation extract, shown to contain Compound (I). Type of assay: biochemical. (Liver microsomes are vesicles of endoplasmic reticulum, rich in cytochrome P450 enzymes.)

Protocol: Male, Charles River CD rats (120 to 150 g) were fed a diet containing 0.1% lovastatin for 4 days. The livers from these rats were homogenized in 5 volumes (mL/g) of ice cold 50 mm HEPES (4-(2-hydroxyethyl)-1-piperazine-ethanesulfonic acid), 5 mm EDTA(ethylenediaminetetraacetic acid) pH 7.5 with a Potter-Elvehjem type tissue grinder. The homogenate was centrifuged twice at 20,000×g for 15 min. at 4° C., discarding the pellet each time. The supernatant was then centrifuged at 100,000×g for 1 hr. at 4° C. The resulting microsomal pellet was resuspended in a volume of the above homogenizing buffer equal to one-fifth the volume of the original homogenate. This microsomal preparation has a protein concentration of about 7 mg/ml. The microsomal suspensions were stored in aliquots at -70° C. Squalene synthetase activity in these aliquots is stable for at least several months.
SQUALENE SYNTHETASE ASSAY
Reactions were performed in 16×125 mm screw cap test tubes. A batch assay mix was prepared from the following solution:
This assay mix was degassed under a vacuum and flushed with N2. […] Ten mL of scintillation fluid was added to the heptane solution and radio-activity was determined by liquid scintillation counting.
Percent inhibition is calculated by the formula: [formula]

In the case of `C=C(CCC12OC(C(=O)O)C(O)(C(=O)O)C(C(=O)O)(O1)C(OC(=O)/C=C/C(C)CC(C)CC)C2O)C(OC(C)=O)C(C)Cc1ccccc1` (stereo not shown) [Compound (I)], the “activity in the squalene synthetase assay” value is recorded as “active”.
